Results on six compounds are retold here after patent US10849926B2, “GM3-promoted inflammation inhibitor and inflammatory cytokine production inhibitor” (THE NOGUCHI INSTITUTE, priority 2015, dated 2020).

Common to all, as to format: cell-based
The subject of assay [1] is Human peripheral blood-derived monocytes (CD14 positive cells). The assay can be described thus: LPS-dependent inflammatory cytokine production in human peripheral blood-derived monocytes (ELISA). The following applies: LPS 0.125 ng/mL + 1.25, 2.5, or 5.0 μM ganglioside; for production of IL-6 by LPS: 18 hours (FIG. 8); for production of IL-1β by LPS: 18 hours (FIG. 9); for production of TNF-α by LPS: 18 hours (FIG. 10). How it is done:
(§1) Human peripheral blood-derived monocytes (CD14 positive cells) were cultured in DMEM (Low Glucose) containing 0.5% FCS and 25 ng/mL of granulocyte/macrophage colony stimulating factor, and co-stimulated with 0.125 ng/mL of E. coli-derived lipopolysaccharide (LPS, E. coli O111:B4), and 1.25, 2.5, or 5.0 μM of N-mix (neutral glycosphingolipid mixture (Glc-Cer, Lac-Cer, Gb3, and Gb4)) or each of the ganglioside molecular species. 18 hours later, the inflammatory cytokines (IL-6, IL-1β, and TNF-α) secreted in the culture supernatant were quantitated using the ELISA method.
A general note: ELISA stands for enzyme-linked immunosorbent assay.

For the next assay, the system named is TLR4. The assay can be described thus: IL-6 production in human monocytes stimulated with LPS (TLR4 activating factor). As to conditions: LPS 0.125 ng/mL, 5 μM GM3 molecular species, 18 hours (FIG. 12). How it is done:
as §1
(§2) Then, under the same culture conditions as in Example 5, human monocytes were stimulated using any of 0.125 ng/mL of LPS (i.e., TLR4 activating factor), 5.0 μg/mL of high mobility group box 1 (HMGB 1) (i.e., a TLR4 and TLR2 activating factors), 20 ng/mL of Pam3Csk4 (i.e., a TLR1 and TLR2 activating factors), 1.0 ng/mL of MALP-2 (i.e., TLR2 and TLR6 activating factors), 50 ng/mL of Flagellin (i.e., a TLR5 activating factor), and 250 ng/mL of R-848 (i.e., TLR7 and TLR8 activating factors); and 5 μM of GM3 molecular species. 18 hours later, the inflammatory cytokine IL-6 secreted in the culture supernatant was quantitated using the ELISA method.

In assay [2] the test system is Toll-like receptor (TLR) on human monocytes. Nature of the assay: IL-6 production in human monocytes stimulated with other TLR activating factors (Pam3Csk4, MALP-2, Flagellin, R-848). The following applies: 5 μM GM3 molecular species, 18 hours (FIG. 12). How it is done: as §1, §2
Another assay deals with TLR4 and TLR2. Nature of the assay: IL-6 production in human monocytes stimulated with HMGB1 (TLR4 and TLR2 activating factor). As to conditions: HMGB 1 5.0 μg/mL, 5 μM GM3 molecular species, 18 hours (FIG. 12). The protocol:
as §1, §2

The subject of a further assay is human monocytes. Nature of the assay: IL-6 production in human monocytes by LPS with or without GM3C22 or GM3C24 (ELISA). As to conditions: for production of IL-6 in response to stimulation promoted by the addition of GM3C22 and GM3C24: LPS 0.06 ng/mL + GM3C22 or GM3C24, 18 hours (FIG. 11); for production of IL-6 in response to LPS stimulation: LPS 0.06 ng/mL only, 18 hours (FIG. 11). How it is done: as §1
Under the same culture conditions as in Example 5, “GM3C16”, “GM3C18” or “GM3C24:1” which inhibited inflammation was combined to “GM3C22” or “GM3C24” which promoted inflammation. The resultant combination was added to the monocytes and further stimulated with 0.06 ng/mL of LPS (i.e., a TLR4 activating factor). 18 hours later, the inflammatory cytokine IL-6 secreted in the culture supernatant was quantitated using the ELISA method.

The next assay deals with TLR1 and TLR2. Nature of the assay: IL-6 production in human monocytes stimulated with Pam3Csk4 (TLR1 and TLR2 activating factor). As to conditions: Pam3Csk4 20 ng/mL, 5 μM GM3 molecular species, 18 hours (FIG. 12). How it is done: as §1, §2

Each structure is given as a SMILES string.

For the compound `CCCCCCCCCCCCCC=CC(O)C(COC1OC(CO)C(OC2OC(CO)C(O)C(OC3(C(=O)O)CC(O)C(NC(C)=O)C(C(O)C(O)CO)O3)C2O)C(O)C1O)NC(=O)CCCCCCCCCCCCCCCCCCCCC` (stereo not drawn) [GM3C22, reference compound], in assay [1], the “production of IL-6 by LPS” value is “significantly enhanced”, the “production of IL-1β by LPS” value is “significantly enhanced” and the “production of TNF-α by LPS” value is listed as “significantly enhanced”. Further, the “IL-6 production by LPS” value with TLR4 is listed as “selectively increased”. The “IL-6 production in other TLR activating factors” value in assay [2] is listed as “no increase”. The “IL-6 production by HMGB1” value in the assay with TLR4 and TLR2 is “selectively increased”.

Regarding `CCCCCCCCCCCCCC=CC(O)C(COC1OC(CO)C(OC2OC(CO)C(O)C(OC3(C(=O)O)CC(O)C(NC(C)=O)C(C(O)C(O)CO)O3)C2O)C(O)C1O)NC(=O)C(O)CCCCCCCCCCCCCCCCCCCCCC` (stereo not drawn) [GM3hC24, reference compound], in assay [1], the “production of IL-6 by LPS” value was “significantly enhanced”, the “production of IL-1β by LPS” value was “significantly enhanced” and the “production of TNF-α by LPS” value is recorded as “significantly enhanced”. Also, the “IL-6 production by LPS” value with TLR4 is given as “selectively increased”. Further, in assay [2], the “IL-6 production in other TLR activating factors” value was “no increase”. Also, the “IL-6 production by HMGB1” value with TLR4 and TLR2 is given as “selectively increased”.

For the compound `CCCCCCCCC=CCCCCCCCCCCCCCC(=O)NC(COC1OC(CO)C(OC2OC(CO)C(O)C(OC3(C(=O)O)CC(O)C(NC(C)=O)C(C(O)C(O)CO)O3)C2O)C(O)C1O)C(O)C=CCCCCCCCCCCCCC` (stereo not drawn) [GM3C24:1], in assay [1], the “production of IL-6 by LPS” value is “inhibiting”, the “production of IL-1β by LPS” value is listed as “inhibiting” and the “production of TNF-α by LPS” value is “inhibiting”. In the assay on human monocytes, the “production of IL-6 in response to stimulation promoted by the addition of GM3C22 and GM3C24” value (“production … of GM3C22 and GM3C24” below) was “strongly inhibited”; the “production of IL-6 in response to LPS stimulation” value (“production … to LPS stimulation” for short) is “strongly inhibited”. Also, the “IL-6 production by Pam3Csk4” value in the assay with TLR1 and TLR2 is “inhibitory action was also observed”. In addition, the “IL-6 production by LPS” value in the assay on TLR4 is on record as “inhibitory action”. Also, the “IL-6 production by HMGB1” value with TLR4 and TLR2 is on record as “inhibitory action”.

For the compound `CCCCCCCCCCCCCC=CC(O)C(COC1OC(CO)C(OC2OC(CO)C(O)C(OC3(C(=O)O)CC(O)C(NC(C)=O)C(C(O)C(O)CO)O3)C2O)C(O)C1O)NC(=O)CCCCCCCCCCCCCCC` (stereo not drawn) [GM3C16], in assay [1], the “production of IL-6 by LPS” value is “inhibiting”, the “production of IL-1β by LPS” value is listed as “inhibiting” and the “production of TNF-α by LPS” value was “inhibiting”. Further, in the assay with human monocytes, the “production … of GM3C22 and GM3C24” value was “strongly inhibited”; the “production … to LPS stimulation” value was “strongly inhibited”. Also, the “IL-6 production by Pam3Csk4” value with TLR1 and TLR2 was “inhibitory action was also observed”. For the same compound, in the assay on TLR4, the “IL-6 production by LPS” value is on record as “inhibitory action”. Further, the “IL-6 production by HMGB1” value in the assay with TLR4 and TLR2 is “inhibitory action”.

Consider `CCCCCCCCCCCCCC=CC(O)C(COC1OC(CO)C(OC2OC(CO)C(O)C(OC3(C(=O)O)CC(O)C(NC(C)=O)C(C(O)C(O)CO)O3)C2O)C(O)C1O)NC(=O)CCCCCCCCCCCCCCCCCCCCCCC` (stereo not drawn) [GM3C24, reference compound], for which, in assay [1], the “production of IL-6 by LPS” value is listed as “significantly enhanced”, the “production of IL-1β by LPS” value was “significantly enhanced” and the “production of TNF-α by LPS” value is given as “significantly enhanced”. Besides, the “IL-6 production by LPS” value in the assay with TLR4 was “selectively increased”. Moreover, the “IL-6 production in other TLR activating factors” value in assay [2] is “no increase”. The “IL-6 production by HMGB1” value in the assay on TLR4 and TLR2 is on record as “selectively increased”.

For `CCCCCCCCCCCCCC=CC(O)C(COC1OC(CO)C(OC2OC(CO)C(O)C(OC3(C(=O)O)CC(O)C(NC(C)=O)C(C(O)C(O)CO)O3)C2O)C(O)C1O)NC(=O)CCCCCCCCCCCCCCCCC` (stereo not drawn) [GM3C18], in assay [1], the “production of IL-6 by LPS” value is recorded as “inhibiting”, the “production of IL-1β by LPS” value is listed as “inhibiting” and the “production of TNF-α by LPS” value was “inhibiting”. Also, in the assay on human monocytes, the “production … of GM3C22 and GM3C24” value is given as “strongly inhibited”; the “production … to LPS stimulation” value is listed as “strongly inhibited”. Besides, the “IL-6 production by Pam3Csk4” value with TLR1 and TLR2 is “inhibitory action was also observed”. Also, the “IL-6 production by LPS” value in the assay with TLR4 was “inhibitory action”. In the assay with TLR4 and TLR2, the “IL-6 production by HMGB1” value is listed as “inhibitory action”.
